Data: PubChem BioAssay (NCI)
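Briefly, cells in 96-well plates were exposed to five compound concentrations for 48 h, and endpoints were estimated by linear interpolation. At the TGI there is no net growth.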

Legend:
Assay in all cases: NCI-60 cell line screen, 48 h
[1] = tested on: M14 melanoma
[2] = tested on: U251 CNS
[3] = tested on: BT-549 breast
[4] = tested on: NCI-H522 lung
[5] = tested on: SK-MEL-2 melanoma
[6] = tested on: SN12C renal
[7] = tested on: SK-OV-3 ovarian
[8] = tested on: NCI/ADR-RES ovarian
[9] = tested on: HL-60(TB) leukemia
[10] = tested on: LOX IMVI melanoma

SMILES	TGI [1] [µM]	TGI [2] [µM]	TGI [3] [µM]	TGI [4] [µM]	TGI [5] [µM]	TGI [6] [µM]	TGI [7] [µM]	TGI [8] [µM]	TGI [9] [µM]	TGI [10] [µM]
Clc1ccc(OCc2nnc(CCCCCCCCc3nnc(COc4ccc(Cl)cc4Cl)o3)o2)c(Cl)c1	> 100	> 100	> 100	> 100	> 100	> 100	> 100	> 100		
COC(=O)CC1C2CC3C(C2=O)C13 (configuration not stated)	> 100	> 100		> 100	> 100	> 100	> 100	> 100	> 100	> 100
CCCCNC(=S)Nc1nc(C(=O)NNS(=O)(=O)c2ccccc2)cs1	> 100	> 100	70.8	> 100	43.8	62.5	> 100	> 100		39.2
COc1cccc(/C=C/C2=NN(c3cccc(S(=O)(=O)O)c3)C3(C2)SCC(=O)N3c2nc3ccccc3s2)c1 (configuration not stated)	> 100	> 100	> 100	28.4	> 100	> 100		> 100	> 100	40.5
CCN(CC)C(=O)CCCCCCCCC1CO1 (configuration not stated)	> 100	> 100		> 100	> 100	> 100	> 100	> 100	> 100	> 100
COc1ccc(-c2cc(-c3ccc(Nc4ccnc5cc(Cl)ccc45)cc3)nc(N)c2C#N)c2ccccc12	> 100	> 100	> 100	> 100	> 100	> 100		> 100		> 100
Cc1nn(-c2ccccc2)c(C)c1/C=N/NC(=O)c1sc(=S)n(-c2ccccc2)c1N	> 100	> 100	> 100		> 100	> 100	> 100	> 100	> 100	5.12
COc1cccc(-c2cc(=O)c3cc(C)cnc3[nH]2)c1	> 69.6	> 100	> 100		7.45	> 33.9	> 100	> 100	0.617	> 100
CCCCCCCCOCC1S(=O)(=O)OCCOS1(=O)=O	> 100	> 100		> 100	> 100	> 100	> 100	> 100	> 100	> 100
O=C(CCCC(=O)N1CC(CCl)c2ccc([N+](=O)[O-])cc21)N1CC(CCl)c2ccc([N+](=O)[O-])cc21 (configuration not stated)	> 100	> 100	> 100	> 100	> 100	> 100	> 100		> 100	> 100
Clc1ccc(-c2nc(-c3ccc(Cl)cc3)[s+]s2)cc1	> 100	> 100	> 100	> 100	> 100	> 100	> 100	> 100		> 100
